Assays:
[1] = Hydrolysis reaction: turbidity and pH of diluted ZLC solutions before and after aging; format: physicochemical; settings: for pH after aging / turbidity after aging (NTU): aged 37° C. over 5 hours; for initial turbidity (NTU): before aging
Experimental: Hydrolysis reaction: A 185 mg/ml ZLC solution is prepared and diluted several-fold and aged in a 37° C. oven over 5 hours for turbidity studies. […] Turbidity of the solutions is measured using a nephelometer, results being given in nephelometric turbidity units (NTU).
The precipitates formed in the 8×, 16× and 32× diluted solutions are collected by centrifugation and identified as crystalline ZnO by PXRD. From the supernatant, a single crystal is grown and shown by X-ray diffraction to be Lysine Monohydrochloride Dihydrate (Lysine.HCl.2H2O).

[2] = biological target: T1, Bovine Serum Albumin (BSA) (Bos taurus, UniProt P02769); assay: Flocculation of ZLC in the presence of protein (turbidity, pH); format: physicochemical; settings: 5 hours at 37° C.
T1 construct: is a serum albumin protein derived from the blood of cattle; from tissue; host or cells: blood of cattle
T1 sequence (P02769 25-607): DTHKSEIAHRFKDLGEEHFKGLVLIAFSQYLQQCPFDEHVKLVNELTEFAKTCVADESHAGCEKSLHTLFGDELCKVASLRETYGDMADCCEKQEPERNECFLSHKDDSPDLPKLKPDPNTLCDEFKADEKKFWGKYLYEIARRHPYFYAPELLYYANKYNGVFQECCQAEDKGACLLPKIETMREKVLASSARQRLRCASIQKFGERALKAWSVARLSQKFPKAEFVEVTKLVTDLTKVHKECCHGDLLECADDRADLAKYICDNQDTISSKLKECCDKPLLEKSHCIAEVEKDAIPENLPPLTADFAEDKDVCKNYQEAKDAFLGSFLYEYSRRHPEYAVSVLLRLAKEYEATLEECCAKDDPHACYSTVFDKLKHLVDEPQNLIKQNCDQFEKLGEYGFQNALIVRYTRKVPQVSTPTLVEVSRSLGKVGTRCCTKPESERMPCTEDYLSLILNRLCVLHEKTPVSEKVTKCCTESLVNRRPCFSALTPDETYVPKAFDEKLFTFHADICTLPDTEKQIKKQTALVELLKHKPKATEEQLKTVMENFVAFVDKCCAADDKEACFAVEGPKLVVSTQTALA
Experimental: Turbidity and pH of solutions are measured 5 hours after the mixtures were placed in a 37° C. oven, and the results are shown in Table 3.

[3] = tested on: bacterial lawn on TSA plates; assay: Zone of inhibition test; format: cell-based; settings: 20 μl on filter paper discs, 20 hours at 37° C.; compared with zinc oxide and lysine hydrochloride
Experimental: A zone of inhibition test is conducted on several materials: zinc oxide, lysine hydrochloride, and ZLC. The method involves making a lawn of freshly prepared bacterial culture on TSA (trypticase soy agar) plates. Sterile filter paper discs are seeded with 20 μl of test sample (supernatant or mixture). Sample-coated filter paper discs are air dried and applied onto the bacterial lawn on TSA plates. Plates are incubated for 20 hours at 37° C.

[4] = Precipitation of ZLC-BSA mixture solutions at adjusted pH; format: physicochemical; settings: pure solution, pH 3-11
Excerpt: The pH of the solutions is adjusted to 3, 4, 5, 6, 7, 8, 9, 10 and 11 to observe the formation of precipitation. Precipitate is formed in all solutions at pH ranging from 3 to 5. […] All solutions appear clear at pH 8. A small amount of precipitation is also found at pH 9 and 10. At pH 11, precipitate is formed in all solutions. […] The formation of precipitation in acid pH requires both ZLC and BSA to be present in solution.

[5] = sample 1: DI water, 0% BSA, ZLC about 0.98% w/w or 15 mg/ml
[6] = sample 2: 1% BSA, pH 7.2, ZLC about 0.96% w/w or 15 mg/ml
[7] = sample 3: 1% BSA, pH adjusted to 5.1, ZLC about 0.96% w/w or 15 mg/ml

## NCCCCC(N)C(=O)O.NCCCCC(N)C(=O)O.O.O.[Cl-].[Cl-].[Zn+2] (stereo not drawn) [ZLC, zinc-lysine-HCl complex]
[1]; 5.78 mg/ml ZLC solution
  pH after aging: 8
  turbidity after aging (NTU): >1000 NTU
[1]; 11.56 mg/ml ZLC solution
  pH after aging: 7.8
  turbidity after aging (NTU): >1000 NTU
[1]; 23.125 mg/ml ZLC solution
  pH after aging: 7.7
  initial turbidity (NTU): 0.7 NTU
[1]; 46.25 mg/ml ZLC solution
  pH after aging: 7.4
  turbidity after aging (NTU): 2.8 NTU
  initial turbidity (NTU): 1.5 NTU
[1]; 92.5 mg/ml ZLC solution
  pH after aging: 7
  turbidity after aging (NTU): 2.6 NTU
  initial turbidity (NTU): 2.8 NTU
[1]; 185 mg/ml ZLC solution diluted several-fold
  observation on dilution of the solution: A white precipitate forms as the solution is diluted
[1]; 185 mg/ml ZLC solution
  pH after aging: 6.8
  turbidity after aging (NTU): 4.1 NTU
  initial turbidity (NTU): 4.7 NTU
[1]; 8×, 16× and 32× diluted solutions, precipitate identified as ZnO by PXRD
  stability of the complex upon dilution: disassociates upon dilution, with consequent precipitation of zinc oxide
[2]; [5]
  observation: becomes slightly cloudy
  pH: 8
[2]; [6]
  Turbidity (NTU): >1000 NTU
  observation: a lot white precipitate
  pH: 8.2
[2]; [7]
  Turbidity (NTU): >1000 NTU
  observation: a lot white precipitate
  pH: 8
[3]
  antibacterial activity (zone of inhibition): better antibacterial activity than zinc oxide alone or lysine hydrochloride alone
[4]
  formation of precipitation: No precipitation

— patent US9827177B2, “Antiperspirant products with protein and antiperspirant salts” (Colgate-Palmolive Company, priority 2012, dated 2017)
